This is an account of results in ChEMBL document CHEMBL5375952, “Discovery of Novel 8-Hydroxyquinoline Derivatives with Potent In Vitro and In Vivo Antifungal Activity” (J Med Chem, 2023).

Values after ≈ are worked out from the molar mass of the structure shown.

In general, MIC refers to the lowest concentration that inhibits growth of the organism. The IC50 is the concentration that gives 50% inhibition.

Data set [1] relates to Candida albicans. The data set can be described thus: Antifungal activity against Candida albicans SC5314 assessed as fungal growth inhibition incubated for 48 hrs by broth microdilution method. Format: functional.
Data set [2] relates to Candida albicans. As to the kind of experiment: Antifungal activity against Candida albicans 21 assessed as fungal growth inhibition incubated for 48 hrs by broth microdilution method. Format: functional.
Data set [3] has as its system Candida albicans. As to the kind of experiment: Antifungal activity against Candida albicans 22 assessed as fungal growth inhibition incubated for 48 hrs by broth microdilution method. Format: functional.
The subject of data set [4] is Nakaseomyces glabratus. As to the kind of experiment: Antifungal activity against Candida glabrata 201 assessed as fungal growth inhibition incubated for 48 hrs by broth microdilution method. Format: functional. A general note: In broth dilution the organism is exposed to a series of concentrations in liquid medium.
For data set [5], the system named is Nakaseomyces glabratus. The data set can be described thus: Antifungal activity against Candida glabrata 202 assessed as fungal growth inhibition incubated for 48 hrs by broth microdilution method. Type of data set: functional.
In data set [6] the test system is Nakaseomyces glabratus. As to the kind of experiment: Antifungal activity against Candida glabrata 205 assessed as fungal growth inhibition incubated for 48 hrs by broth microdilution method. Type of data set: functional.
Data set [7] relates to Pichia kudriavzevii. As to the kind of experiment: Antifungal activity against Candida krusei 68 assessed as fungal growth inhibition incubated for 48 hrs by broth microdilution method. Format: functional.
The test system of data set [8] is Pichia kudriavzevii. As to the kind of experiment: Antifungal activity against Candida krusei 69 assessed as fungal growth inhibition incubated for 48 hrs by broth microdilution method. Format: functional.
Data set [9] deals with Pichia kudriavzevii. The data set can be described thus: Antifungal activity against Candida krusei 477 assessed as fungal growth inhibition incubated for 48 hrs by broth microdilution method. Type of data set: functional.
For data set [10], the system named is Candida parapsilosis. As to the kind of experiment: Antifungal activity against Candida parapsilosis 105 assessed as fungal growth inhibition incubated for 48 hrs by broth microdilution method. Format: functional. Conditions: Lodderomyces parapsilosis.
Data set [11] has as its system Candida parapsilosis. The data set can be described thus: Antifungal activity against Candida parapsilosis 107 assessed as fungal growth inhibition incubated for 48 hrs by broth microdilution method. Conditions: Lodderomyces parapsilosis. Format: functional.
Data set [12] deals with Candida parapsilosis. As to the kind of experiment: Antifungal activity against Candida parapsilosis 125 assessed as fungal growth inhibition incubated for 48 hrs by broth microdilution method. Format: functional. Conditions: Lodderomyces parapsilosis.
The subject of data set [13] is Candida tropicalis. As to the kind of experiment: Antifungal activity against Candida tropicalis 176 assessed as fungal growth inhibition incubated for 48 hrs by broth microdilution method. Format: functional.
The test system of data set [14] is Candida tropicalis. As to the kind of experiment: Antifungal activity against Candida tropicalis 178 assessed as fungal growth inhibition incubated for 48 hrs by broth microdilution method. Format: functional.
In data set [15] the test system is Candida tropicalis. As to the kind of experiment: Antifungal activity against Candida tropicalis 184 assessed as fungal growth inhibition incubated for 48 hrs by broth microdilution method. Format: functional.
Data set [16] deals with Cryptococcus neoformans. As to the kind of experiment: Antifungal activity against Cryptococcus neoformans 443 assessed as fungal growth inhibition incubated for 48 hrs by broth microdilution method. Type of data set: functional.
The subject of data set [17] is Cryptococcus neoformans. As to the kind of experiment: Antifungal activity against Cryptococcus neoformans 444 assessed as fungal growth inhibition incubated for 48 hrs by broth microdilution method. Type of data set: functional.
Data set [18] has as its system Cryptococcus neoformans. The data set can be described thus: Antifungal activity against Cryptococcus neoformans 445 assessed as fungal growth inhibition incubated for 48 hrs by broth microdilution method. Format: functional.
Data set [19] deals with Aspergillus fumigatus. The data set can be described thus: Antifungal activity against Aspergillus fumigatus 023-12 assessed as fungal growth inhibition incubated for 48 hrs by broth microdilution method. Format: functional.
The test system of data set [20] is Aspergillus fumigatus. The data set can be described thus: Antifungal activity against Aspergillus fumigatus A assessed as fungal growth inhibition incubated for 48 hrs by broth microdilution method. Type of data set: functional.
The test system of data set [21] is Aspergillus fumigatus. The data set can be described thus: Antifungal activity against Aspergillus fumigatus 7544 assessed as fungal growth inhibition incubated for 48 hrs by broth microdilution method. Type of data set: functional.
Data set [22] is described as follows: Cytotoxicity against human Caco-2 cells assessed as cell growth inhibition incubated for 24 hrs by CCK8 assay. Format: toxicity, cell-based. (In general: Tetrazolium dyes change colour on reduction, which living cells bring about.)

With `Cc1ccc(C(NC(=O)CC(C)C)c2ccc3cccnc3c2O)cc1` (configuration not stated), the MIC with Candida albicans [1], with Candida albicans [2], in the data set with Candida albicans [3], in the data set on Nakaseomyces glabratus [4], in the data set with Nakaseomyces glabratus [5] and with Nakaseomyces glabratus [6] was 0.125 µg/mL (≈ 0.359 µM) each time. The MIC in the data set on Pichia kudriavzevii [7] amounted to 0.125 µg/mL (≈ 0.359 µM); in the data set on Pichia kudriavzevii [8] it was 0.125 µg/mL (≈ 0.359 µM); with Pichia kudriavzevii [9], 0.125 µg/mL (≈ 0.359 µM); with Candida parapsilosis [10], 0.032 µg/mL (≈ 0.0918 µM); with Candida parapsilosis [11] it was 0.125 µg/mL (≈ 0.359 µM); in the data set on Candida parapsilosis [12], 0.125 µg/mL (≈ 0.359 µM). Also, the MIC in the data set on Candida tropicalis [13] turned out to be 0.032 µg/mL (≈ 0.0918 µM); with Candida tropicalis [14], 0.032 µg/mL (≈ 0.0918 µM); with Candida tropicalis [15] it was 0.125 µg/mL (≈ 0.359 µM); in the data set on Cryptococcus neoformans [16], 0.016 µg/mL (≈ 0.0459 µM); in the data set with Cryptococcus neoformans [17] it was 0.016 µg/mL (≈ 0.0459 µM); in the data set with Cryptococcus neoformans [18], 0.016 µg/mL (≈ 0.0459 µM). Besides, the MIC in the data set with Aspergillus fumigatus [19] was determined as 0.25 µg/mL (≈ 0.717 µM); in the data set with Aspergillus fumigatus [20], 0.5 µg/mL (≈ 1.43 µM); with Aspergillus fumigatus [21] it was 0.5 µg/mL (≈ 1.43 µM). In addition, the 50% inhibitory concentration (IC50) at 24 h in [22] is 32 µg/mL (≈ 91.8 µM).
